Consider three molecules from article PMC12461331, “Screening of Medicines for Malaria Venture Open Boxes Identifies Potent SARS-CoV‑2 Papain-like Protease (PL^pro) Inhibitors” (ACS Omega, 2025).

In one series the target is PL^pro (Severe acute respiratory syndrome coronavirus 2, UniProt P0DTD1). As to conditions: 20 μM compound, 5 μM enzyme, average of triplicates with SD.
The subject of series [1] is SARS-CoV-2. Particulars: for Data Mode: Hela-ACE2 % Positive SARS-CoV-2.
Series [2] relates to HeLa-ACE2 cells. As to conditions: Hela-ACE2 CoV-2 Total Cell count.
Series [3] deals with uninfected HeLa-ACE2 cells. Particulars: Hela-ACE2 Uninfected Cell Toxicity; for qAC50: relation in column qAC50 Mode, unit not given.
For series [4] the following is noted: female, BALB/c, mouse, 1 h, 2 μM, pH 7.4.
Series [5] has as its system HeLa-ACE2 cells. The series is described as follows: cells. Particulars: Homo sapiens.
Series [6] is described as follows: in vitro. Particulars: human, uninfected HeLa-ACE2 cells.
The nature of series [7]: physchem. As to conditions: pH 7.4.
A short description of series [8]: in vitro. As to conditions: PAMPA.
Series [9] can be described thus: physchem. Particulars: 25 °C, kinetic from dmso stock.
The nature of series [10]: in vitro. Particulars: human, microsomes, pH 7.4.
Series [11] can be described thus: in vitro. Particulars: CD1, mouse, microsomes, pH 7.4.
Another series is described as follows: Plasma stability. Particulars: female, BALB/c, mouse, plasma, pH 7.4.
Series [12] concerns SARS-CoV-2. The series is described as follows: microbe, parasite or virus in culture.
Series [13] in a line: Human liver microsomal stability assay. As to conditions: human, liver microsomes, pH 7.4. A general note: Liver microsomes are vesicles of endoplasmic reticulum, rich in cytochrome P450 enzymes.
Series [14] is described as follows: Mouse liver microsomal stability assay. Particulars: CD1, mouse, liver microsomes, pH 7.4.
The mark [15] stands for this setting: HeLa-ACE2, read-out: HeLa-ACE2 Total cells EC50.
Where [16] appears, read: uninfected HeLa-ACE2 CC50, supplement summary.
Setting [17] is: uninfected HeLa-ACE2 CC50, uninfected HeLa-ACE2 cells, average of triplicates.
The mark [18] stands for this setting: Severe acute respiratory syndrome coronavirus 2, HeLa-ACE2, read-out: SARS-CoV-2 EC50, HeLa-ACE2 cells, average of triplicates.
Where [19] appears, read: Severe acute respiratory syndrome coronavirus 2, HeLa-ACE2, read-out: qAC50, Hela-ACE2 % Positive SARS-CoV-2, relation in column qAC50 Mode, unit inferred.
The mark [20] stands for this setting: Hela-ACE2 % Positive SARS-CoV-2, curve fit.

Structures are written as SMILES. In brackets after ≈: the same amount, converted by molar mass. Several values for one entry are separate records, joined by “and”; a condition that tells them apart may be missing. Identical values can stand only once. Like-named read-outs stand apart in the source and are kept apart here. Some results are limits rather than exact numbers.

What is called CC50 is the concentration that lowers cell viability or growth by half. High values mean lower toxicity to the cells, low ones greater toxicity to the cells. The term chromatographic logD denotes lipophilicity estimated from chromatographic retention. One may read the Papp as the rate of passage across a membrane or cell layer, normalised by area and donor concentration. A higher Papp goes with ready permeation. As a reminder, the kinetic solubility is the concentration staying in solution when a stock, usually in DMSO, is diluted into the medium. The term microsomal CLint denotes the capacity of the preparation to metabolise the compound, expressed as a volume cleared per time. High values mean faster metabolism, low ones greater metabolic stability. Broadly, the half-life is how long it takes for the measured level to halve. A high value points to slow loss. The molecule `C[C@@H](c1cccc2ccccc12)N1CCC(C(=O)NCC2CCCCC2)CC1` (racemic) [Compound 11] returned a ΔT m on PL^pro of 0.90 ± 0.07 °C. For the same molecule, the “Data Mode” value (in the series on SARS-CoV-2 [1]; in the series on HeLa-ACE2 cells [2]; in [3]) was “inactive” each time. The molecule further yielded a qAC50 in series [3] above 3.984e-5. For the same molecule, in series [4], the “plasma stability remaining 60 min” value turned out to be 47.10%. The EC50 in the series with HeLa-ACE2 cells [5] (setting [15]) was above 9.61 µM; in the series with HeLa-ACE2 cells [5] (HeLa-ACE2, read-out: qAC50), above 9.61 µM; in the series on SARS-CoV-2 [12] (setting [18]) it was above 9.61 µM; with SARS-CoV-2 [12] (setting [19]), above 9.61 µM. Further, the CC50 at 24 h in the series “in vitro [6]” (setting [16]) and in “in vitro [6]” (setting [17]) was above 39.8 µM each time. This molecule also had a chromatographic logD in the series “physchem [7]” of 4.8. In “in vitro [8]”, this molecule registered a Papp at 5 h, 10 μM of 0.35 ×10⁻⁶ cm/s. Also, the kinetic solubility at 24 h in “physchem [9]” (pH 2, aqueous buffer) was above 23.1 µg/mL; in the series “physchem [9]” (pH 7.4, aqueous buffer), 6.15 µg/mL (≈ 16.2 µM). Further, the microsomal CLint at 0.5 μM is 209 µL/min/mg in the series “in vitro [10]” and 354 µL/min/mg in “in vitro [11]”. Further, the half-life at 2 μM in the series “Plasma stability” was determined as 315 min. The half-life at 0.5 μM was found to be 13.2 min in series [13] and 7.84 min in series [14].

As usually defined, the AC50 is the concentration giving half of the maximal activity seen. Take `Cc1ccc(CNC(=O)C2CCN([C@@H](C)c3cccc4ccccc34)CC2)cc1` (stereo in doubt) [Compound 5]: the ΔT m at PL^pro was 5.57 °C and 5.57 ± 0.09 °C. Moreover, the “CoV2 Efficacy (delta S0:Sinf)” value in the series on SARS-CoV-2 [1] (HeLa-ACE2) is reported as 105.451. Further, the “Data Mode” value with SARS-CoV-2 [1] is “decreasing (weakly active)”; in the series with HeLa-ACE2 cells [2], “inactive”; in [3], “inactive”. In the series on SARS-CoV-2 [1] (setting [20]), this molecule registered an S0 of 5.451. For the same molecule, the Sinf with SARS-CoV-2 [1] (setting [20]) is on record as -100. The same molecule gave a nHill with SARS-CoV-2 [1] (setting [20]) of 2.548. Also, the qAC50 in series [3] is listed as above 3.984e-5. Moreover, in series [4], the “plasma stability remaining 60 min” value was determined as 33.79%. The EC50 in the series on HeLa-ACE2 cells [5] (setting [15]) was above 9.61 µM; in the series with HeLa-ACE2 cells [5] (HeLa-ACE2, read-out: qAC50), above 9.61 µM; in the series on SARS-CoV-2 [12] (setting [18]), above 9.61 µM; with SARS-CoV-2 [12] (setting [19]) it was above 9.61 µM. Also, the CC50 at 24 h in the series “in vitro [6]” (setting [16]) and in the series “in vitro [6]” (setting [17]) was above 39.8 µM in each case. In “physchem [7]”, this molecule showed a chromatographic logD of 4.55. In addition, the Papp at 5 h, 10 μM in “in vitro [8]” was 0.67 ×10⁻⁶ cm/s. The kinetic solubility at 24 h was above 25 µg/mL in “physchem [9]” (pH 2, aqueous buffer) and 8.62 µg/mL (≈ 22.3 µM) in the series “physchem [9]” (pH 7.4, aqueous buffer). In addition, the microsomal CLint at 0.5 μM worked out at 152 µL/min/mg in the series “in vitro [10]” and 292 µL/min/mg in the series “in vitro [11]”. Further, in “Plasma stability”, the half-life at 2 μM was 239 min. The AC50 in the series on SARS-CoV-2 [12] (Severe acute respiratory syndrome coronavirus 2, HeLa-ACE2, read-out: Log AC50 (converted)) is above 9.61 µM. The half-life at 0.5 μM was 18.2 min in [13] and 9.48 min in [14].

`COc1ccc(CNC(=O)[C@H]2CCN([C@H](C)c3cccc4ccccc34)C2)cc1` [Compound 16] returned a ΔT m on PL^pro of 0.40 ± 0.08 °C. In [4], the “plasma stability remaining 60 min” value is 88.71%. The chromatographic logD in the series “physchem [7]” was found to be 4.24. In the series “in vitro [8]”, this molecule gave a Papp at 5 h, 10 μM of 0.53 ×10⁻⁶ cm/s. Also, the solubility (kinetic) at 24 h was above 24.6 µg/mL in the series “physchem [9]” (pH 2, aqueous buffer) and above 19.5 µg/mL in “physchem [9]” (pH 7.4, aqueous buffer). The microsomal CLint at 0.5 μM was determined as 254 µL/min/mg in the series “in vitro [10]” and 267 µL/min/mg in “in vitro [11]”. In the series “Plasma stability”, this molecule had a half-life at 2 μM of 1730 min. Besides, the half-life at 0.5 μM was 10.9 min in [13] and 10.4 min in series [14].
